From US20230295162A1 (EÖTVÖS LORÁND TUDOMÁNYEGYETEM, priority 2020, published 2023)

Experiments:
[1] = tested on: MDA-MB-231 breast cancer cell line; test: CellTiter-Glo IC50 (Table 3); assay type: cell-based; settings: Homo sapiens
Experimental: (§1) Some representative imipridones and ONC212 as reference were further tested on the following human malignant cell lines: PC3 and LNCap (prostate carcinoma); BxPC3, MiaPaCa2 and Panc1 (pancreatic cancer); A549, HCC827, H1993 and H520 (lung carcinoma); MDA-MB-453 and MDA-MB-231 (breast cancer) (see Table 2 and FIGS. 1-11).
(§2) Cell lines were maintained according to the instructions provided by ATCC (https://www.lgcstandards-atcc.org/) in a 5% CO2 humidified incubator maintained at 37° C. temperature. Effects of compounds on cell viability were measured via CellTiter-Glo® luminescent cell viability assay (Promega, Madison, WI, USA) Cells were plated at 1000 cells/well onto a flat-bottomed, white 96 well plate (BRANDplates, cat. no.: 781965). […] After the treatment, medium was removed and CellTiter-Glo® reagent was added. The luminescence signal was recorded using a microplate reader (BioTek Synergy 2 Multi-Mode Reader, BioTek, Winooski, VT, USA).
(§3) Cell viability data (% of untreated control cells) was evaluated with Microsoft Excel. Dose-response curves (using a non-linear regression model, log (inhibitor) vs response, variable slope) were generated and IC50 values were determined using Graph Pad Prism 5.02 software (GraphPad Software, San Diego, CA, USA).

[2] = tested on: MDA-MB-453 breast cancer cell line; test: CellTiter-Glo IC50 (Table 3); assay type: cell-based; settings: Homo sapiens
Experimental: as §1, §2, §3

[3] = tested on: PC3 human prostate cancer cell line; test: CellTiter-Glo IC50 (Example 19); assay type: cell-based; settings: 72 h
Method in brief: (§4)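 Cultures grown under ATCC conditions at 37° C with 5% CO2 are plated at 1000 cells/well, treated with compound, then lysed with CellTiter-Glo after medium removal. Luminescence gives viability as a fraction of untreated cells; IC50 is taken from a log(inhibitor) vs response fit.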

[4] = tested on: LNCap human prostate cancer cell line; test: CellTiter-Glo IC50 (Example 19); assay type: cell-based; settings: 72 h
Method in brief: as §4

[5] = tested on: H1993 lung carcinoma cell line; test: CellTiter-Glo IC50 (Example 19); assay type: cell-based; settings: Homo sapiens, NCI-H1993, 72 h
Method in brief: as §4

[6] = tested on: MiaPaCa2 pancreatic cancer cell line; test: CellTiter-Glo IC50 (Example 19); assay type: cell-based; settings: Homo sapiens, MIA PaCa-2, 72 h
Method in brief: as §4

[7] = tested on: BxPC3 pancreatic cancer cell line; test: CellTiter-Glo IC50 (Example 19); assay type: cell-based; settings: Homo sapiens, BXPC-3, 72 h
Method in brief: as §4

[8] = tested on: HCC827 lung carcinoma cell line; test: CellTiter-Glo IC50 (Example 19); assay type: cell-based; settings: Homo sapiens, 72 h
Method in brief: as §4

[9] = tested on: A549 lung carcinoma cell line; test: CellTiter-Glo IC50 (Example 19); assay type: cell-based; settings: Homo sapiens, 72 h
Method in brief: as §4

[10] = tested on: H520 lung carcinoma cell line; test: CellTiter-Glo IC50 (Example 19); assay type: cell-based; settings: Homo sapiens, NCI-H520, 72 h
Method in brief: as §4

[11] = tested on: H2228 lung cancer cell line; test: High-throughput screening, CellTiter-Glo cell viability assay at 100 nM; assay type: cell-based, human; settings: Homo sapiens, NCI-H2228, HTS, compounds at 100 nM, 72 h, read-out: cytotoxicity expressed in IC50, H2228 (results of High throughput screening)
[12] = tested on: EBC-1 lung cancer cell line; test: as above; assay type: cell-based, human; settings: Homo sapiens, EBC-1, HTS, compounds at 100 nM, 72 h, read-out: cytotoxicity expressed in IC50, EBC-1 (results of High throughput screening)
[13] = tested on: representative cell lines; test: Cytotoxicity on representative cell lines (summary statement); assay type: cell-based; settings: Homo sapiens; summary range, ca.
[14] = tested on: A2058 (human metastatic melanoma) cells; test: Colorimetric alamarBlue assay, long treatment; settings: Homo sapiens, A2058, 72 h, read-out: cytotoxicity expressed in IC50, A-2058
[15] = tested on: COLO-205 (human colorectal adenocarcinoma) cells; test: Colorimetric alamarBlue assay, long treatment; settings: COLO 205, 72 h, read-out: cytotoxicity expressed in IC50, COLO-205

`O=C1C2=C(CCN(Cc3cc(F)cc(F)c3)C2)N2CCN=C2N1Cc1ccc(Cl)cc1` [I/124, 4-(4-Chlorobenzyl)-7-(3,5-difluorobenzyl)-2,4,6,7,8,9-hexahydroimidazo[1,2-a]pyrido[3,4-e]pyrimidin-5(1H)-one] gave a melting point of 162.4 °C.
`[N-]=[N+]=Nc1cccc(CN2CCC3=C(C2)C(=O)N(Cc2ccc(C(F)(F)F)cc2)C2=NCCN23)c1` [I/111, 7-(3-Azidobenzyl)-4-(4-(trifluoromethyl)benzyl)-2,4,6,7,8,9-hexahydroimidazo[1,2-a]pyrido[3,4-e]pyrimidin-5(1H)-one] gave a melting point of 128.8 °C, an IC50 [1] of 1 nM and an IC50 [2] of less than 1 nM. The IC50 [3] was 7 nM, the IC50 [4] was 5 nM and the IC50 [5] was 6 nM. For the same compound, the IC50 [6] was 10 nM, the IC50 [7] was 13 nM and the IC50 [8] was 12 nM. It also gave an IC50 [9] of 8 nM, an IC50 [10] of 6 nM and an IC50 [11] of less than 100 nM. The IC50 [12] was less than 100 nM.
Compound `O=C1C2=C(CCN(Cc3cc(F)cc(F)c3)C2)N2CCN=C2N1Cc1ccc(F)cc1` [I/7, 4-(4-Fluorobenzyl)-7-(3,5-difluorobenzyl)-2,4,6,7,8,9-hexahydroimidazo[1,2-a]pyrido[3,4-e]pyrimidin-5(1H)-one] has a melting point of 190.5 °C, an IC50 [1] of 2 nM and an IC50 [2] of 1 nM. For the same compound, the IC50 [13] was 3 to 8 nM, the IC50 [3] was 9 nM and the IC50 [4] was 5 nM. The IC50 [5] was 10 nM, the IC50 [6] was 11 nM and the IC50 [7] was 12 nM. It also gave an IC50 [8] of 13 nM, an IC50 [9] of 8 nM and an IC50 [10] of 7 nM. It also gave an IC50 [11] of less than 100 nM and an IC50 [12] of less than 100 nM.
In the case of `O=C1C2=C(CCN(Cc3cccc(F)c3)C2)N2CCN=C2N1Cc1ccc(C(F)(F)F)cc1` [I/3, reference compound], the IC50 [14] is reported as greater than 10000 nM, the IC50 [11] is reported as less than 100 nM and the IC50 [12] is reported as less than 100 nM. For the same compound, the IC50 [15] was greater than 10000 nM.
Work on `[N-]=[N+]=Nc1ccc(CN2C(=O)C3=C(CCN(Cc4cc(F)cc(F)c4)C3)N3CCN=C23)cc1` [I/107, 4-(4-Azidobenzyl)-7-(3,5-difluorobenzyl)-2,4,6,7,8,9-hexahydroimidazo[1,2-a]pyrido[3,4-e]pyrimidin-5(1H)-one] yielded a melting point of 155.5 °C, an IC50 [1] of 3 nM and an IC50 [2] of 2 nM. It also gave an IC50 [3] of 11 nM, an IC50 [4] of 5 nM and an IC50 [5] of 12 nM. It also gave an IC50 [6] of 16 nM, an IC50 [7] of 14 nM and an IC50 [8] of 15 nM. It also gave an IC50 [9] of 16 nM, an IC50 [10] of 8 nM and an IC50 [11] of less than 100 nM. It also gave an IC50 [12] of less than 100 nM.
With `O=C1C2=C(CCN(Cc3cc(F)cc(F)c3)C2)N2CCN=C2N1Cc1ccc(C(F)(F)F)cc1` [I/30, 7-(3,5-Difluorobenzyl)-4-(4-(trifluoromethyl)benzyl)-2,4,6,7,8,9-hexahydroimidazo[1,2-a]pyrido[3,4-e]pyrimidin-5(1H)-one] the melting point was 168 °C, the IC50 [1] was less than 1 nM and the IC50 [2] was less than 1 nM. The IC50 [13] was 3 to 8 nM, the IC50 [3] was 2 nM and the IC50 [4] was 2 nM. The IC50 [5] was 4 nM, the IC50 [6] was 3 nM and the IC50 [7] was 4 nM. For the same compound, the IC50 [8] was 5 nM, the IC50 [9] was 4 nM and the IC50 [10] was 3 nM. The IC50 [11] was less than 100 nM and the IC50 [12] was less than 100 nM.
In the case of `O=C1C2=C(CCN(Cc3ccccc3)C2)N2CCN=C2N1Cc1ccc(C(F)(F)F)cc1` [I/1, reference compound], the IC50 [14] is reported as greater than 10000 nM, the IC50 [1] is reported as 24 nM and the IC50 [2] is reported as 16 nM. The IC50 [3] was 80 nM, the IC50 [4] was 52 nM and the IC50 [5] was 90 nM. It also gave an IC50 [6] of 76 nM, an IC50 [7] of 110 nM and an IC50 [8] of 105 nM. It also gave an IC50 [9] of 60 nM, an IC50 [10] of 73 nM and an IC50 [11] greater than 100 nM. For the same compound, the IC50 [12] was less than 100 nM and the IC50 [15] was 250 nM.
